Test results from US12552757B2, “NRF2-activating compound” (SENJU PHARMACEUTICAL CO., LTD., priority 2019, dated 2026).

What was measured:
[1] = molecular target: T1, binding between NRF2 and KEAP1 (Homo sapiens, UniProt Q14145); assay: Measurement 1 of Nrf2 activating action (binding assay): BRET assay of inhibition of the binding between NRF2 and KEAP1; settings: 50% binding inhibitory concentration, NanoLuc-NRF2 / KEAP1-HaloTag cell lysates
T1 construct: expressed in transfected cells; host or cells: HCE-T cells; each protein was expressed separately, and the two cell lysates were mixed in the well
T1 sequence (Q14145 whole entry): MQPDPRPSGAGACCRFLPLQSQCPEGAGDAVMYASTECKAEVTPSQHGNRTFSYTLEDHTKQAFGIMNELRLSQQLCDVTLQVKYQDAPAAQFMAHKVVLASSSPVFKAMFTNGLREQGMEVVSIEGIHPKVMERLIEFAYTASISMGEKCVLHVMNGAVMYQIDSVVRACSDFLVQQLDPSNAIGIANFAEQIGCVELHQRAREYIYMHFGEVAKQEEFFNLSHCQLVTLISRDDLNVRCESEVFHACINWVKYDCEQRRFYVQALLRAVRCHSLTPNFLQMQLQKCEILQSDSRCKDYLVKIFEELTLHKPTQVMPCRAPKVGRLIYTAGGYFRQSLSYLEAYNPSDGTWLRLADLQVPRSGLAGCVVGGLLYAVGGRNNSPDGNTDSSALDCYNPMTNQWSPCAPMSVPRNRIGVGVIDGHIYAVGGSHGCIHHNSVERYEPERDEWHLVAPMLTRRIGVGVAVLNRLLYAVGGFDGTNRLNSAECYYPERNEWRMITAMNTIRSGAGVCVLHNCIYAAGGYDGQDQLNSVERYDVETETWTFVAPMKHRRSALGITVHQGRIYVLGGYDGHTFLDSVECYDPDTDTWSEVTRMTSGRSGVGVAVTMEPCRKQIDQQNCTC
Description: Compounds 1 to 53 produced in the Examples were used as test substances.
The inhibitory activity of each compound on the binding between NRF2 and KEAP1 was measured by bioluminescence resonance energy transfer (BRET) assay. A plasmid having human NRF2 (Original Clone ID: ha01449s1) sequence fused with NanoLuc (19 kDa, Promega) at the N-terminal was transduced into HCE-T cells using FuGENE HD (Promega). 48 hours after transduction, the cell lysate was collected and used as an NRF2-expressing cell lysate. A plasmid having human KEAP1 (Original Clone ID: cs00328) sequence fused with HaloTag (33 kDa, Promega) at the C-terminal was transduced into HCE-T cells using FuGENE HD (Promega). After 24 hours, HaloTag Nano BRET 618 Ligand (Promega) was added to the medium. The cell lysate cultured for 24 hours after the addition was used as a KEAP1-expressing cell lysate.
The NRF2-expressing cell lysate and the KEAP1-expressing cell lysate were adjusted so that the luminescence and fluorescence intensities per well were constant. Tables 1 and 2 show the formulation of each reaction solution.
Each test substance at a concentration 100 times higher than the test concentration was dissolved in dimethylsulfoxide for adjustment. 49 μL of KEAP1 solution was added to a 96-well polystyrene microplate (FALCON) to which 1 μL of each test substance solution was added, followed by incubation for 15 minutes. Then, 50 μL of NRF2 solution was added to the above solution, followed by incubation for 1 hour. To measure the binding between NRF2 and KEAP1, NanoBRET Nano-Glo Substrate (Promega) diluted with Opti-Mem (Thermo Fisher Scientific) was added, followed by shaking for 30 seconds. Then, luminescence and fluorescence were measured using the GloMax Discover System (Promega). A 495-nm short pass filter and a 600-nm long pass filter were respectively used to measure donor and acceptor emission values. A value obtained by dividing the acceptor emission value by the donor emission value was regarded as BRET value. A BRET value when the compound was not added, and a BRET value when the KEAP1 solution was not added were respectively used as binding rates of 100% and 0%, and the binding rate when the compound was added was calculated. Further, using this binding rate, the 50% binding inhibitory activity concentration (IC50) was calculated from the following formula: IC50(M)=10^(LOG(A/B)×(50−C)/(D−C)+LOG(B)) • A: higher concentration out of 2 close concentrations across the inhibition rate of 50% • B: lower concentration out of 2 close concentrations across the inhibition rate of 50% • C: inhibition rate at B • D: inhibition rate at A

[2] = Measurement of metabolic stability in human liver microsomes; assay type: in vitro ADME; settings: residual ratio of test compound after 30 minutes at 37° C. with human liver microsome, LC/MS/MS
Description: 1 mmol/L DMSO solutions of the compounds produced in the Examples were prepared. Each of the 1 mmol/L DMSO solutions was diluted with acetonitrile to 10 μmol/L, and then diluted with a 6.5 mmol/L Q-NADPH solution to 200 nmol/L. 50 μL of each solution was added to the reaction group and the non-reaction group. 50 μL of a 0.2 mg protein/mL human liver microsome (Mixed Gender, Pool of 50 livers; XenoTech, LLC) solution was added to the reaction group, followed by incubation at 37° C. for 30 minutes with shaking. After 400 μL of methanol was added to the non-reaction group, 50 μL of a 0.2 mg protein/mL human liver microsome solution was added to adjust the formulation. After incubation in the reaction group, 400 μL of methanol was added to stop the reaction. The samples of the reaction group and non-reaction group were allowed to stand at −20° C. for about 30 minutes, followed by centrifugation at 4° C. at 3000 rpm for about 10 minutes. The supernatant was analyzed using LC/MS/MS, and the residual ratio of the test compound was calculated from the peak area value of the test compound using the following formula. The measurement was carried out using the following devices: HPLC system: LC-20A-Series High Performance Liquid Chromatograph (Shimadzu Corporation) and mass spectrometer: API 4000 (AB Sciex Pte. Ltd.), or using equivalent devices. Residual ratio (%)=(peak area value of test compound in reaction group/peak area value of test compound in non-reaction group)×100 Results

Row | IC50 [1] | Metabolic stability* [2] | SMILES
1 | 0.83 nM | 72% | CC[C@@H]1CN(Cc2cc(C(c3ccc(C(C)=O)o3)C(C)C(=O)O)ccc2C)S(=O)(=O)c2ccccc2O1 (stereo partly drawn) [Compound 24, 3-(5-acetylfuran-2-yl)-3-(3-{[(R)-4-ethyl-1,1-dioxide-3,4-dihydro-2H-benzo[b][1,4,5]oxathiazepin-2-yl]methyl}-4-methylphenyl)-2-methylpropanoic acid]
2 | 3.8 nM | 72% | CC[C@@H]1CN(Cc2cc(C(CC(=O)O)c3ccc(C(C)=O)o3)ccc2C)S(=O)(=O)c2ccccc2O1 (stereo partly drawn) [Compound 25, 3-(5-acetylfuran-2-yl)-3-(3-{[(R)-4-ethyl-1,1-dioxide-3,4-dihydro-2H-benzo[b][1,4,5]oxathiazepin-2-yl]methyl}-4-methylphenyl)propanoic acid]
3 | 17 nM | 93% | CC[C@@H]1CN(Cc2cc(C(CC(=O)O)c3ccc(C(=O)NC)o3)ccc2C)S(=O)(=O)c2ccccc2O1 (stereo partly drawn) [Compound 26, 3-(3-{[(R)-4-ethyl-1,1-dioxide-3,4-dihydro-2H-benzo[b][1,4,5]oxathiazepin-2-yl]methyl}-4-methylphenyl)-3-[5-(methylcarbamoyl)furan-2-yl]propanoic acid]
4 | 20 nM | 85% | CC[C@@H]1CN(Cc2cc(C(CC(=O)O)c3ccc(C(=O)N(C)C)o3)ccc2C)S(=O)(=O)c2ccccc2O1 (stereo partly drawn) [Compound 27, 3-[5-(dimethylcarbamoyl)furan-2-yl]-3-(3-{[(R)-4-ethyl-1,1-dioxide-3,4-dihydro-2H-benzo[b][1,4,5]oxathiazepin-2-yl]methyl}-4-methylphenyl)propanoic acid]
5 | 19 nM | 67% | CC[C@@H]1CN(Cc2cc(C(CC(=O)O)c3ccc(C(=O)N4CCCC4)o3)ccc2C)S(=O)(=O)c2ccccc2O1 (stereo partly drawn) [Compound 28, 3-(3-{[(R)-4-ethyl-1,1-dioxide-3,4-dihydro-2H-benzo[b][1,4,5]oxathiazepin-2-yl]methyl}-4-methylphenyl)-3-[5-(pyrrolidine-1-carbonyl)furan-2-yl]propanoic acid]
6 | 17 nM | 83% | CC[C@@H]1CN(Cc2cc(C(CC(=O)O)c3ccc(C(=O)NC(C)C)o3)ccc2C)S(=O)(=O)c2ccccc2O1 (stereo partly drawn) [Compound 29, 3-(3-{[(R)-4-ethyl-1,1-dioxide-3,4-dihydro-2H-benzo[b][1,4,5]oxathiazepin-2-yl]methyl}-4-methylphenyl)-3-[5-(isopropylcarbamoyl)furan-2-yl]propanoic acid]
7 | 14 nM | 81% | CC[C@@H]1CN(Cc2cc(C(CC(=O)O)c3ccc(C(=O)NCCOC)o3)ccc2C)S(=O)(=O)c2ccccc2O1 (stereo partly drawn) [Compound 30, 3-(3-{[(R)-4-ethyl-1,1-dioxide-3,4-dihydro-2H-benzo[b][1,4,5]oxathiazepin-2-yl]methyl}-4-methylphenyl)-3-{5-[(2-methoxyethyl)carbamoyl]furan-2-yl}propanoic acid]
8 | 99 nM | 77% | CC[C@@H]1CN(Cc2cc(C(CC(=O)O)c3cc(C)c(C(=O)NC)o3)ccc2C)S(=O)(=O)c2ccccc2O1 (stereo partly drawn) [Compound 31, 3-(3-{[(R)-4-ethyl-1,1-dioxide-3,4-dihydro-2H-benzo[b][1,4,5]oxathiazepin-2-yl]methyl}-4-methylphenyl)-3-[4-methyl-5-(methylcarbamoyl)furan-2-yl]propanoic acid]
9 | 205 nM | 90% | CC[C@@H]1CN(Cc2cc(C(CC(=O)O)c3ccc(CNC(C)C)o3)ccc2C)S(=O)(=O)c2ccccc2O1 (stereo partly drawn) [Compound 32, 3-(3-{[(R)-4-ethyl-1,1-dioxide-3,4-dihydro-2H-benzo[b][1,4,5]oxathiazepin-2-yl]methyl}-4-methylphenyl)-3-(5-[(isopropylamino)methyl]furan-2-yl)propanoic acid]
10 | 0.3 nM | 62% | CC[C@@H]1CN(Cc2cc(C(CC(=O)O)c3ccc(C(C)=O)n3C)ccc2C)S(=O)(=O)c2ccccc2O1 (stereo partly drawn) [Compound 33, 3-(5-acetyl-1-methyl-1H-pyrrol-2-yl)-3-(3-{[(R)-4-ethyl-1,1-dioxide-3,4-dihydro-2H-benzo[b][1,4,5]oxathiazepin-2-yl]methyl}-4-methylphenyl)propanoic acid]
11 | 47 nM | 54% | CC[C@@H]1CN(Cc2cc(C(CC(=O)O)c3ccc(C(C)=O)n3CC)ccc2C)S(=O)(=O)c2ccccc2O1 (stereo partly drawn) [Compound 34, 3-(5-acetyl-1-ethyl-1H-pyrrol-2-yl)-3-(3-{[(R)-4-ethyl-1,1-dioxide-3,4-dihydro-2H-benzo[b][1,4,5]oxathiazepin-2-yl]methyl}-4-methylphenyl)propanoic acid]
12 | 3.9 nM | 39% | CC[C@@H]1CN(Cc2cc(C(CC(=O)O)c3c(C)c(C(C)=O)c(C)n3C)ccc2C)S(=O)(=O)c2ccccc2O1 (stereo partly drawn) [Compound 35, 3-(4-acetyl-1,3,5-trimethyl-1H-pyrrol-2-yl)-3-(3-{[(R)-4-ethyl-1,1-dioxide-3,4-dihydro-2H-benzo[b][1,4,5]oxathiazepin-2-yl]methyl}-4-methylphenyl) propanoic acid]
13 | 2.5 nM | 29% | CC[C@@H]1CN(Cc2cc(C(CC(=O)O)c3cc(C#N)n(C)c3)ccc2C)S(=O)(=O)c2ccccc2O1 (stereo partly drawn) [Compound 36, 3-(5-cyano-1-methyl-1H-pyrrol-3-yl)-3-(3-{[(R)-4-ethyl-1,1-dioxide-3,4-dihydro-2H-benzo[b][1,4,5]oxathiazepin-2-yl]methyl}-4-methylphenyl)propanoic acid]
14 | 0.16 nM | 89% | CC[C@@H]1CN(Cc2cc(C(CC(=O)O)c3cc4c(n3C)CCCC4=O)ccc2C)S(=O)(=O)c2ccccc2O1 (stereo partly drawn) [Compound 37, 3-(3-{[(R)-4-ethyl-1,1-dioxide-3,4-dihydro-2H-benzo[b][1,4,5]oxathiazepin-2-yl]methyl}-4-methylphenyl)-3-(1-methyl-4-oxo-4,5,6,7-tetrahydro-1H-indol-2-yl)propanoic acid]
15 | 0.22 nM | 61% | CC[C@@H]1CN(Cc2cc(C(CC(=O)O)c3cc4c(s3)C(=O)NC4)ccc2C)S(=O)(=O)c2ccccc2O1 (stereo partly drawn) [Compound 38, 3-(3-{[(R)-4-ethyl-1,1-dioxide-3,4-dihydro-2H-benzo[b][1,4,5]oxathiazepin-2-yl]methyl}-4-methylphenyl)-3-(6-oxo-5,6-dihydro-4H-thieno[2,3-c]pyrrol-2-yl) propanoic acid]
16 | 3.8 nM | 89% | CC[C@@H]1CN(Cc2cc(C(CC(=O)O)c3cncs3)ccc2C)S(=O)(=O)c2ccccc2O1 (stereo partly drawn) [Compound 39, 3-(3-{[(R)-4-ethyl-1,1-dioxide-3,4-dihydro-2H-benzo[b][1,4,5]oxathiazepin-2-yl]methyl}-4-methylphenyl)-3-(thiazol-5-yl)propanoic acid]
17 | 2.6 nM | 69% | CC[C@@H]1CN(Cc2cc(C(CC(=O)O)c3ncc(C(C)=O)s3)ccc2C)S(=O)(=O)c2ccccc2O1 (stereo partly drawn) [Compound 40, 3-(5-acetylthiazol-2-yl)-3-(3-{[(R)-4-ethyl-1,1-dioxide-3,4-dihydro-2H-benzo[b][1,4,5]oxathiazepin-2-yl]methyl}-4-methylphenyl)propanoic acid]
